# Measurements published in ChEMBL document CHEMBL1201862, “PubChem BioAssay data set” (2004).
#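 Cultured in 96-well plates, cells were exposed to test compound for 48 hours across five concentrations. GI50 is the concentration that inhibits growth by half.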 Active and inactive are the calls of the source. Cut-off read from the data, not from the text of the source: active = GI50 up to about 1.1 µM and inactive = higher.
# Key:
# Assay in all cases: NCI anticancer screen, dose series, 48 h
# [1] = system: 786-0
# [2] = system: A498
# [3] = system: A549
# [4] = system: ACHN
# [5] = system: BT-549
# [6] = system: CAKI-1
# [7] = system: CCRF-CEM
# [8] = system: COLO 205
# [9] = system: DU-145
# [10] = system: EKVX
# [11] = system: HCC 2998
# [12] = system: HCT-116
# [13] = system: HCT-15
# [14] = system: HL-60
# [15] = system: HOP-62
# [16] = system: HOP-92
# [17] = system: HT-29
# [18] = system: Hs-578T
# [19] = system: IGROV-1
# [20] = system: KM12
# [21] = system: LOX IMVI
# [22] = system: M14
# [23] = system: MCF7
# [24] = system: MDA-MB-231
# [25] = system: MDA-MB-435
# [26] = system: MDA-N
# [27] = system: MOLT-4
# [28] = system: Malme-3M
# [29] = system: NCI-H226
# [30] = system: NCI-H23
# [31] = system: NCI-H460
# [32] = system: NCI-H522
# [33] = system: NCI/ADR-RES
# [34] = system: OVCAR-3
# [35] = system: OVCAR-4
# [36] = system: OVCAR-5
# [37] = system: OVCAR-8
# [38] = system: PC-3
# [39] = system: RPMI-8226
# [40] = system: RXF 393
# [41] = system: SF-268
# [42] = system: SF-295
# [43] = system: SF-539
# [44] = system: SK-MEL-28
# [45] = system: SK-MEL-2
# [46] = system: SK-MEL-5
# [47] = system: SK-OV-3
# [48] = system: SN12C
# [49] = system: SNB-19
# [50] = system: SR
# [51] = system: SW-620
# [52] = system: T47D
# [53] = system: TK-10
# [54] = system: U-251
# [55] = system: UACC-257
# [56] = system: UACC-62
# [57] = system: UO-31
smiles,measurement,setting,value
COc1cc(O)c(C(=O)/C=C/c2ccccc2)c(OC)c1 [FLAVOKAWAIN B],GI50,[1],4.62 µM (inactive)
same,GI50,[2],4.43 µM (inactive)
same,GI50,[3],10.3 µM (inactive)
same,GI50,[4],8.73 µM (inactive)
same,GI50,[5],4.47 µM (inactive)
same,GI50,[6],5.28 µM (inactive)
same,GI50,[7],2.27 µM (inactive)
same,GI50,[8],14.5 µM (inactive)
same,GI50,[9],7.73 µM (inactive)
same,GI50,[10],10.4 µM (inactive)
same,GI50,[11],2.97 µM (inactive)
same,GI50,[12],5.64 µM (inactive)
same,GI50,[13],4.51 µM
same,GI50,[14],1.21 µM (inactive)
same,GI50,[15],12 µM (inactive)
same,GI50,[16],3.72 µM (inactive)
same,GI50,[17],7.66 µM (inactive)
same,GI50,[18],3.2 µM (inactive)
same,GI50,[19],4.53 µM (inactive)
same,GI50,[20],3.52 µM (inactive)
same,GI50,[21],2.29 µM (inactive)
same,GI50,[22],7.94 µM (inactive)
same,GI50,[23],7.8 µM (inactive)
same,GI50,[24],7.64 µM (inactive)
same,GI50,[25],4.71 µM (inactive)
same,GI50,[26],3.78 µM (inactive)
same,GI50,[27],5.37 µM (inactive)
same,GI50,[28],4.61 µM (inactive)
same,GI50,[29],4.15 µM (inactive)
same,GI50,[30],5.97 µM (inactive)
same,GI50,[31],3.54 µM (inactive)
same,GI50,[32],2.42 µM (inactive)
same,GI50,[33],3.8 µM (inactive)
same,GI50,[34],7.1 µM (inactive)
same,GI50,[35],8 µM (inactive)
same,GI50,[36],23.9 µM (inactive)
same,GI50,[37],3.64 µM (inactive)
same,GI50,[38],6.1 µM (inactive)
same,GI50,[39],3.85 µM (inactive)
same,GI50,[40],12.5 µM (inactive)
same,GI50,[41],4.98 µM (inactive)
same,GI50,[42],13 µM (inactive)
same,GI50,[43],3.78 µM (inactive)
same,GI50,[44],3.34 µM (inactive)
same,GI50,[45],4.62 µM (inactive)
same,GI50,[46],9.27 µM (inactive)
same,GI50,[47],11.6 µM (inactive)
same,GI50,[48],3.29 µM (inactive)
same,GI50,[49],3.47 µM (inactive)
same,GI50,[50],1.85 µM (inactive)
same,GI50,[51],3.85 µM (inactive)
same,GI50,[52],6.82 µM (inactive)
same,GI50,[53],6.55 µM (inactive)
same,GI50,[54],4.6 µM (inactive)
same,GI50,[55],10.8 µM (inactive)
same,GI50,[56],4.14 µM (inactive)
same,GI50,[57],5.83 µM (inactive)
